Assay results reported in US20220213070A1, “COMPOUNDS INHIBITING TDG ACTIVITY” (EPITAS BIOSCIENCES (SHANGHAI) CO., LTD., priority 2019, published 2022).

Legend:
TDG [1] = molecular target: T1, TDG (Homo sapiens, UniProt Q13569); assay: TDG inhibitory activity of compounds in cells (caC-cmv-firefly luciferase reporter, HEK 293T TDG KO cells transfected with pCDNA4-TDG); assay type: cell-based; conditions: read-out: Inhibition rate on TDG activity
Protocol: Experimental Determination of TDG Inhibitory Activity of Compounds in Cells
The operation steps of this example are as follows:
(1) Preparation of Methylation Reporter Plasmid:
(a) SAM with a stock solution concentration of 32 mM was diluted with ultrapure water to 1600 μM;
(b) The reaction system was prepared according to the following ratio: 30 μl ultrapure water, 5 μl 10×NEBuffer 2, 5 μl diluted SAM, 1 μg pCpGL-CMV-firefly plasmid, 1 μl SssI methylase (4 U/μl); 50 μl in total, the reaction was carried out at 37° C. for 2 hours;
(c) The mixture was heated at 65° C. for 20 minutes. Then 0.2% SDS was added, the reaction was carried out at 80° C. for 10 min; and then 1 μl Proteinase K was added, the reaction was carried out at 50° C. for 1 h;
(d) The methylated plasmid was recovered with Dr. GenTLE® sedimentation aid (TAKARA).
(2) Preparation of 5fC/5caC pCpGL-CMV-Firefly Reporter Plasmid
(a) The following 10× reaction system was prepared:
(b) The reaction system was prepared according to the following ratio:
(c) The reaction was carried out at 37° C. for one hour;
(d) 24 μg Tet1 protein was added for the second time and the reaction was continued for one hour;
(e) SDS was added to a final concentration of 0.5%, 80° C., 10 minutes, then 1 μl Proteinase K was added, 55° C. overnight.
(f) The treated caC-cmv-firefly plasmid was recovered with Dr. GenTLE® sedimentation aid (TAKARA) and was quantified.
(3) Using the Luciferase Activity Assay Method to Detect the Inhibitory Rate of Small Molecule Compounds on Intracellular TDG Enzyme Activity
In a 96-well plate, the reaction system and operation flow of each well were as follows:
(a) 1 ng caC-cmv-firefly, Ing pCpGL-CMV-Relina and 150 ng pCDNA4-TDG or 150 ng pCDNA4-myc plasmid, were diluted to 75 ul Opti-MEM, mixed well and allowed to stand still for 5 minutes;
(b) 2 ul transfection reagent (Hieff Trans™ Liposomal transfection Reagent (0.5 ul/well, YEAEEN, Cat #40802)) was diluted in 100 ul Opti-MEM, mixed well and allowed to stand still for 5 minutes;
(c) 75 ul of (a) and (b) were mixed respectively, and allowed to stand still at room temperature for 20 minutes;
(d) HEK 293T TDG KO cells were digested with trypsin, the cells were collected and counted, and the suspension cell concentration was adjusted to 4×10^5/ml;
(e) 50 ul of the mixture (c) was added to each well, and at the same time 100 ul of the diluted cell suspension was added to the same well, and they were mixed well.
(f) After the cells adhering to the wall, different concentrations of small molecule compounds to be tested were added to each well.
(g) Incubation was performed in a 37° C. CO2 incubator for 72 hours. The supernatant was removed and the cells were quickly freezed at −80° C.
(h) Before detecting the luciferase activity, the cells to be tested were removed from −80° C. and allowed to stand still at room temperature for 30 minutes. Following the instructions of Dual-Glo® Luciferase Reagent (PROMEGA), the firefly fluorescence value and Renilla fluorescence value of each well were detected.
(i) The firefly fluorescence value was divided with the Renilla fluorescence value of each well; 96-well plate Z′ and experimental window was calculated by the ratio of transfected caC-cmv-firefly, pCpGL-CMV-Relina, pCDNA4-TDG plasmid mixture plus DMSO experimental group to transfected caC-cmv-firefly, pCpGL-CMV-Relina, pCDNA4-myc plasmid mixture plus DMSO experimental group, and the relative enzyme activity inhibition rate of each compound was calculated.
According to the biological method described in this example, the selected compounds of the present invention were analyzed, and the results are shown in Table 2. Among them, “+” in Table 2 refers to the compound's TDG inhibitory activity at a concentration of 10 μM≤25%; “++” refers to the compound's TDG inhibitory activity at a concentration of 10 μM>25%.

TDG [2] = molecular target: T1, TDG; assay: Inhibition of TDG mismatch repair activity (fluorescent G·U double-stranded DNA probe T1-T2); assay type: biochemical; conditions: TDG 100 nM/L, preincubated with compound 37° C. 30 minutes; probe 30 nM; read-out: Inhibitory activity on TDG mismatch repair IC50
Text: 14.1 Experimental Determination of Compound's Inhibitory Rate on TDG Mismatch Repair Activity
(1) A double-stranded DNA probe T1-T2 containing uracil bases was synthesized. The nucleotide sequence of the T1 chain was: 5′-FAM-TAAUGTGAATGGAGCTGAAAT-biotin-3′; The nucleotide sequence of the T2 chain was 5′-ATTTCAGCTCCATTCACGTTA-3′. Using PCR annealing program, the T1 strand and T2 strand were complementary to form a double-stranded DNA probe T1-T2.
(2) The reaction system and steps for each well of a 96-well plate were as follows: a. TDG (100 nM/L) was mixed with different concentrations of compounds, and the mixture was incubated at 37° C. for 30 minutes. The composition of the reaction buffer was: 20 mM HEPES pH7.5, 100 mM NaCl, 0.2 mM EDTA, 2.5 mM MgCl2; b. The double-stranded DNA probe T1-T2 was added to the mixture to obtain a final volume of 100 μL, with a concentration of 30 nM, and the mixture was incubated at 25° C. for 30 min; c. 1 μL of streptavidin magnetic beads were added to the reaction solution and fully bound the biotin-labeled DNA for 1 hour; d. NaOH was added to the reaction solution to a final concentration of 200 mM, and the mixture was incubated at room temperature for 30 minutes; e. Under the action of a magnetic stand the streptavidin magnetic beads were adsorbed to the tube wall, the supernatant was transferred to a new 96-well plate, and placed in a Tecan microplate reader for fluorescence measurement. The parameter settings were: excitation wavelength 485 nm; emission wavelength 520 nm. A linear curve between fluorescence intensity and TDG concentration was constructed, R^2=0.9968, and the linear range was 0-50 nM/L;
According to the biological method described in this example, the selected compounds of the present invention were analyzed, and the results are shown in Table 1. Among them, “++” in Table 1 refers to the inhibitory activity for TDG mismatch repair with IC50≤5 μM; “+” refers to the inhibitory activity for TDG mismatch repair with IC50>5 μM.

[3] = system: Lung cancer cell line Calu-1; assay: Inhibition of the growth of Calu-1 cells (CellTiter-Glo, 72 hours); assay type: cell-based; conditions: Homo sapiens, 72 hours of culturing, read-out: Inhibitory activity on alu-1 cell growth IC50
Protocol: 14.2 Experimental Determination of Compound's Inhibitory Rate on the Growth of Calu-1 Cells
Lung cancer cell line Calu-1 was cultured in 90% McCoy's 5A medium (BI, 01-075-1ACS)+10% fetal bovine serum (Gibco, 10270106), placed in a CO2 incubator (37° C., 5% CO2, 95% air) for culturing. Calu-1 cells were digested with trypsin (Gibco, 12604-021) and seeded in a 384-well plate at a density of 500 cells per well. The medium was 50 μL and it was cultured overnight at 37° C. in an incubator. On the next day, different concentrations of test compounds were added, and the final concentration of DMSO was 0.1%. After 72 hours of culturing, the cells were taken out for test. The cell culture medium from the 384-well plate to be tested was removed, and fresh culture medium premixed with CTG was immediately added: the ratio of the culture medium to CellTiter-Glo® 2.0 reagent (Promega, G9243) was 2:1, 30 ul was added to each well. The plate was shaken at room temperature for 20 minutes, and then a multi-function plate reader (TECAN, Infinite 200 Pro) was used according to the reagent instructions to determine the cell survival.
According to the biological method described in this example, the selected compounds of the present invention were analyzed, and the results are shown in Table 1. Among them, “++” in Table 1 refers to the inhibitory activity on the growth of calu-1 cells with IC50≤5 μM; “+” refers to the inhibitory activity on the growth of calu-1 cells with IC50>5 μM.

T1 sequence (Q13569 whole entry): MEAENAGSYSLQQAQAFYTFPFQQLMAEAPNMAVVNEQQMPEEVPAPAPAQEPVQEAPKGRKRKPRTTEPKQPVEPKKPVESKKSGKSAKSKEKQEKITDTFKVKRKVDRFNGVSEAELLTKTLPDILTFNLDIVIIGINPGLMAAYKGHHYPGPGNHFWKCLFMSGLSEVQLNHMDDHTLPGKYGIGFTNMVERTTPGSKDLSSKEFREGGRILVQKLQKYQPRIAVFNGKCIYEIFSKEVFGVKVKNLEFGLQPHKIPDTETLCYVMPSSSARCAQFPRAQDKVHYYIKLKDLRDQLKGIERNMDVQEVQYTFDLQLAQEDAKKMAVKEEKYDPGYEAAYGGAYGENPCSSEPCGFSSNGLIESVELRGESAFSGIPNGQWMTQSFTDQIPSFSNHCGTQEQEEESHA

Row | Structure (SMILES) | inhibition at 10 µM (TDG [1]) [%] | IC50 (TDG [2]) [µM] | IC50 [3] [µM]
1 | O=C(CCN1CCC(c2ccc(F)c(O)c2)C1)c1ccc2c(c1)OCCO2 (stereo not drawn) [Compound 52, 1-(2,3-dihydrobenzo[b][1,4]dioxin-6-yl)-3-(3-(4-fluoro-3-hydroxyphenyl)pyrrolidine-1-yl)propan-1-one] | < 25 | ≤ 5 | ≤ 5
2 | O=C(CCN1Cc2ccc([N+](=O)[O-])cc2C1)c1ccc2c(c1)OCCO2 [Compound 2, 1-(2,3-dihydrobenzo[b][1,4]dioxin-6-yl)-3-(5-nitroisoindo1-2-yl)propan-1-one] | < 25 | ≤ 5 | ≤ 5
3 | O=C(CCN1Cc2ccccc2C1)c1ccc2c(c1)CCO2 [Compound 34, 1-(2,3-dihydrobenzofuran-5-yl)-3-(isoindolin-2-yl)propan-1-one] | < 25 | > 5 | > 5
4 | CC(=O)c1ccc2c(c1)CN(CCC(=O)c1ccc3c(c1)OCCO3)C2 [Compound 7, 3-(5-acetylisoindolin-2-yl)-1-(2,3-dihydrobenzo[b][1,4]dioxin-6-yl)propan-1-one] | < 25 | ≤ 5 | > 5
5 | O=C(CCN1CCC(c2ccc(F)cc2O)C1)c1ccc2c(c1)OCCO2 (stereo not drawn) [Compound 51, 1-(2,3-dihydrobenzo[b][1,4]dioxin-6-yl)-3-(3-(4-fluoro-2-hydroxyphenyl)pyrrolidine-1-yl)propan-1-one] | < 25 | > 5 | > 5
6 | C=CC(=O)c1ccc2c(c1)OCCO2 [Compound 42, 1-(2,3-dihydrobenzo[b][1,4]dioxin-6-yl)prop-2-en-1-one] | < 25 | ≤ 5 | ≤ 5
7 | O=C(CCN1Cc2ccccc2C1)c1ccc2c(c1)C(=O)CCO2 [Compound 36, 6-(3-(isoindolin-2-yl)propionyl)chroman-4-one] | < 25 | ≤ 5 | ≤ 5
8 | O=C(CCn1cc(-c2ccccc2)cn1)c1ccc2c(c1)OCCO2 [Compound 28, 1-(2,3-dihydrobenzo[b][1,4]dioxin-6-yl)-3-(4-phenyl-1H-pyrazol-1-yl)propan-1-one] | < 25 | > 5 | > 5
9 | O=C(CCN1CCC(O)(c2ccccc2)C1)c1ccc2c(c1)OCCO2 (stereo not drawn) [Compound 44, 1-(2,3-dihydrobenzo[b][1,4]dioxin-6-yl)-3-(3-hydroxy-3-phenylpyrrolidin-1-yl)propan-1-one] | < 25 | > 5 | ≤ 5
10 | O=C(CCN1CCc2ccccc2C1)c1ccc2c(c1)OCCO2 [Compound 13, 1-(2,3-dihydrobenzo[b][1,4]dioxin-6-yl)-3-(3,4-dihydroisoquinoline-2(1H)-yl)propan-1-one] | < 25 | ≤ 5 | ≤ 5
11 | c1ccc2c(c1)CN(CCCc1ccc3c(c1)OCCO3)C2 [Compound 29, 2-(3-(2,3-dihydrobenzo[b][1,4]dioxin-6-yl)propyl)isoindoline] | > 25 | > 5 | > 5
12 | O=C(CCN1CCC(=O)c2ccccc21)c1ccc2c(c1)OCCO2 [Compound 27, 1-(3-(2,3-dihydrobenzo[b][1,4]dioxin-6-yl)-3-oxopropyl)-2,3-dihydroquinoline-4(1H)-one] | < 25 | > 5 | > 5
13 | O=C(CCN1C(=O)CSC1=S)c1ccc2c(c1)OCCO2 [Compound 22, 3-(3-(2,3-dihydrobenzo[b][1,4]dioxin-6-yl)-3-oxopropyl)-2-thiothiazolidine-4-one] | < 25 | > 5 | > 5
14 | COc1ccc(C(=O)CCN2Cc3ccccc3C2)cc1OC [Compound 38, 1-(3,4-dimethoxyphenyl)-3-(isoindolin-2-yl)propan-1-one] | > 25 | > 5 | > 5
15 | O=C(CCN1CCc2ccccc21)c1ccc2c(c1)OCCO2 [Compound 11, 1-(2,3-dihydrobenzo[b][1,4]dioxin-6-yl)-3-(indoline-1-yl)propan-1-one] | < 25 | > 5 | > 5
16 | COc1ccc2c(c1)CN(CCC(=O)c1ccc3c(c1)OCCO3)C2 [Compound 5, 1-(2,3-dihydrobenzo[b][1,4]dioxin-6-yl)-3-(5-methoxyisoindolin-2-yl)propan-1-one] | < 25 | ≤ 5 | ≤ 5
17 | O=C(CCN1CCC(c2ccc(Br)cc2)C1)c1ccc2c(c1)OCCO2 (stereo not drawn) [Compound 47, 3-(3-(4-bromophenyl)pyrrolidin-1-yl)-1-(2,3-dihydrobenzo[b][1,4]dioxin-6-yl)propan-1-one] | < 25 | ≤ 5 | ≤ 5
